{"source": "patent US10092620B2", "about": "“Uses of cyclic peptides for treating and preventing atherosclerosis” (THE SCRIPPS RESEARCH INSTITUTE, priority 2013, dated 2018)", "key": {"[1]": {"test_system": "HDL in human plasma", "assay": "pre-beta HDL ELISA assay: remodeling HDL in human plasma in vitro", "type": "biochemical", "conditions": "pre-beta HDL ELISA", "description": "First, various cyclic peptides, including the majority of compounds shown in FIG. 2, were assessed for activities for remodeling HDL in human plasma in vitro. Unlike western blot which was used to generate data shown in FIG. 2, here a pre-beta HDL ELISA assay was used to measure pre-beta HDL levels. Results from the assay are shown in Table 1, which lists the peptides in the order of their activities in remodeling HDL."}, "[2]": {"test_system": "human plasma HDL", "assay": "human plasma HDL remodeling (NDGGE, immunoblot for human apoA-I)", "type": "biochemical", "conditions": "human plasma in vitro; Western blot for apoA-I; FIGS. 1 and 2a", "source_text": "As an initial phase of investigation, we evaluated in vitro the effectiveness of our cyclic D,L-α-peptides to remodel mature human plasma HDLs into lipid-poor HDL (FIG. 1 and FIG. 2a). Lipid-poor HDL particles are key acceptors of cholesterol in reverse cholesterol transport and are thus crucial for combating atherosclerosis. In fact, with respect to the cholesterol efflux capacity of human sera, the levels of lipid-poor HDL correlate much better than the levels of HDL-cholesterol or apoA-I. Briefly, our assay involved incubating human plasma with a peptide, after which the plasma sample was subjected to non-denaturing gradient gel electrophoresis (NDGGE) to separate the HDL subspecies and then immunoblotted for human apoA-I. The ranked activities of the cyclic D,L-α-peptides in promoting formation of lipid-poor HDL are shown in FIG. 1. It should be noted that there are inherent variabilities associated with electrophoretic transfer, staining, and densitometric quantitation, so the peptide ranking should be viewed as an approximate guide to relative plasma HDL remodeling efficacy. Nevertheless, the rankings were similar overall whether the panel was assayed by using peptide stock solutions prepared in 10% sucrose/H2O (FIGS. 1 and 2a) or peptide stock solutions prepared in 1:1 DMSO/H2O. From these preliminary structure-activity relationship (SAR) studies, we identified a pronounced sequence dependence for efficient plasma HDL remodeling (vide infra).\nHuman plasma remodeling: All procedures involving human samples were approved by TSRI Institutional Review Board. Procedures were modified from those reported in Troutt et al., J. Lipid Res. 49, 581-587, 2008. Blood samples from normal healthy human donors were obtained from TSRI Normal Blood Donor Program. EDTA-anticoagulated whole blood was centrifuged at 1500×g for 15 min within 1 h of being drawn from the donor. The plasma layer was aliquoted and used immediately or frozen at −80° C. for future use. Peptide stock solutions were prepared at ˜15 mM peptide in 50% DMSO for initial screenings, or at ˜2 mM peptide in 10% sucrose for remodeling assays at lower concentrations (FIG. 1) and cholesterol efflux assays (FIG. 2). Plasma samples (30 μL) were treated with peptide stocks, and the samples were incubated at 37° C. for 0.5-1 h, and then quenched by adding 270 μL of 50% sucrose (1:9 dilution). Samples were mixed with 6× native loading buffer (125 mM tris, pH 6.8, 0.02% bromophenol, 20% glycerol), of which 6 μL was loaded onto a 4-20% polyacrylamide gel. The molecular weight ladder used was High Molecular Weight Calibration Kit (Amersham Biosciences, #17-0445-01). […] The films were scanned and quantified by densitometry using the program LabWorks (v. 4.0.0.8). […]"}, "[3]": {"assay": "plasma concentration during oral administration in drinking water", "type": "in vivo", "conditions": "LDLr-null (LDLr−/−), mouse, orally in the drinking water at 25 mg/kg/day, limit of detection 1 μM", "source_text": "We continued oral administration of the peptide to the animals for an additional eight weeks (ten weeks total for the study) to determine how the peptide would impact the development of atherosclerotic lesions (see FIG. 6 for treatment schedule). At the completion of the 10-week study, the total plasma cholesterol level in the peptide-treated animals was 30% lower than in control animals (FIG. 2c). Moreover, an analysis of the whole aorta lesion area and the aortic sinus lesion volume indicated reductions in atherosclerotic lesions of 26% and 50%, respectively (FIGS. 2c, d). […] When administered orally in the drinking water at 25 mg/kg/day, the plasma concentration of compound 1 was below the 1 μM limit of detection (data not shown).\nLC-MS SIM quantitation of peptide concentration: Cyclic peptide concentrations were quantified by using reverse-phase HPLC coupled with mass spectrometry. The electrospray ionization mass spectrometry measurements were carried out in the positive ionization mode using a single quadrupole mass spectrometer (Hewlett Packard HP 1100 MSD series). […] For quantitative calibration, standard curves were established using mouse EDTA-anticoagulated plasma spiked with various concentrations of the peptide. […]"}}, "note": "Non-standard residues stand in square brackets, D forms with d. Residues, ends and D or L forms follow the SMILES beside them."}
{"compound": "CC(C)C[C@@H]1NC(=O)[C@@H](Cc2c[nH]c3ccccc23)NC(=O)[C@H](CCCNC(=N)N)NC(=O)[C@@H](CCC(=O)O)NC(=O)[C@H](CCC(N)=O)NC(=O)[C@@H](CCC(=O)O)NC(=O)[C@H](CCCNC(=N)N)NC(=O)[C@@H](Cc2c[nH]c3ccccc23)NC1=O", "note": "[SEQ ID NO:1, c[wLwReQeR]] (cyclo([dW]L[dW]R[dE]Q[dE]R))", "values": [{"measurement": "Pre-beta HDL generated (normalized level)", "setting": "[1]", "value": 0.88}, {"measurement": "plasma HDL remodeling to lipid-poor HDL (in words)", "setting": "[2]", "value": "considerably more active than any of four analogs"}, {"measurement": "level at time molar", "setting": "[3]", "value": "< 1000", "unit": "nM"}]}
